Results: patent publication US6706880B2 (Research Triangle Institute, priority 1990, dated 2004)
Where two headings read alike, the source gives them in different places.

Experiments:
[1] = molecular target: norepinephrine transporter (UniProt Q9WTR4); experiment: Inhibition of [3H]nisoxetine radioligand binding at the norepinephrine transporter
Excerpt: (§1) Illustrative in vitro assays for binding are described in Boja et al Ann. NY Acad. Sci. 654:282-291 (1992), which is incorporated herein by reference in its entirety. […] Alternatively, the compounds may be analyzed by their ability to inhibit reuptake of a labelled neurotransmitter in a sample, in particular, in synaptosomes.

[2] = molecular target: T1, serotonin transporter (Rattus norvegicus, UniProt P31652); experiment: Inhibition of [3H]paroxetine radioligand binding at the serotonin transporter
T1 construct: from tissue
Excerpt: as §1

[3] = molecular target: dopamine transporter (UniProt P23977); type: binding
Excerpt: as §1

[4] = read-out: NEN IC50 for inhibition of radioligand binding, NEN=[3H] nisoxetine
[5] = 5-HT IC50 for inhibition of radioligand binding, 5-HT=[3H] paroxetine
[6] = read-out: DA IC50 for inhibition of radioligand binding, DA=[3H]WIN 35,428
[7] = 5-HT=[3H] paroxetine, read-out: 5-HT IC50 for inhibition of radioligand binding
[8] = read-out: IC50 NE [3H]-nisoxetine, Table IV
[9] = IC50 5-HT [3H]-paroxetine, Table IV
[10] = read-out: IC50 DA [3H]-WIN 35,428, Table IV
[11] = NEN=[3H] nisoxetine, read-out: NEN IC50 for inhibition of radioligand binding

T1 sequence (P31652 whole entry): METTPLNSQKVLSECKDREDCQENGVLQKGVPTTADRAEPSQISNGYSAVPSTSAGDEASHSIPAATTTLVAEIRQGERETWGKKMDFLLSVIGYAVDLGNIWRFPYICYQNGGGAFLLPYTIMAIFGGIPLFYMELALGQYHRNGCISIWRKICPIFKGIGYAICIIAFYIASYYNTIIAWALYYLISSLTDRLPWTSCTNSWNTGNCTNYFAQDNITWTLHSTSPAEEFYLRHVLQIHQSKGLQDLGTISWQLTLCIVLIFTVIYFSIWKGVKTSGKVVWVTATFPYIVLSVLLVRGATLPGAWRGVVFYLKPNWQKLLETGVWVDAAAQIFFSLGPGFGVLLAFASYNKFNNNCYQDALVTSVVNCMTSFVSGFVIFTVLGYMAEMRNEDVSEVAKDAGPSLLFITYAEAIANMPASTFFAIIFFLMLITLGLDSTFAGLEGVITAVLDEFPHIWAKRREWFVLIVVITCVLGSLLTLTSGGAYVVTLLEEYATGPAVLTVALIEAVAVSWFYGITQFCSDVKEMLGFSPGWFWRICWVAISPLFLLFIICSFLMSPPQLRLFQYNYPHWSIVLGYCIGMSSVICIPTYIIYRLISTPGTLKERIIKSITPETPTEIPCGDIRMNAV

Compound	IC50 [1, 4]	IC50 [2, 5]	IC50 [3, 6]	IC50 [2, 7]	also measured
CN1C2CCC1C(C(=O)N1CCCC1)C(c1ccc(Cl)cc1)C2 (stereo not drawn) [RTI-4229-147]	3950 nM	12400 nM	1.38 nM		
Cc1ccc(C2CC3CCC([C@H]2C(=O)OC2CCC2)N3C)cc1 (stereo partly drawn) [RTI-4229-150]	4740 nM	2020 nM	3.74 nM		
Cc1ccc(C2CC3CCC([C@H]2c2nc(-c4ccccc4)no2)N3C)cc1 (stereo partly drawn) [RTI-4229-151]	60 nM	1070 nM	2.33 nM		
CC(C)OC(=O)C1C2CCC(CC1c1ccc(I)cc1)N2 (stereo not drawn) [RTI-4229-153]	132 nM	3.59 nM	1.06 nM		
CC(C)c1noc(C2C(c3ccc(Cl)cc3)CC3CCC2N3C)n1 (stereo not drawn) [RTI-4229-154]	135 nM	3460 nM	6 nM		
CCc1ccc(C2CC3CCC(N3)C2C(=O)OC)cc1 (stereo not drawn) [RTI-4229-173]	122 nM		49.9 nM	8.13 nM	
CN1C2CCC1C(C(=O)OC1CC1)C(c1ccc(Cl)cc1)C2 (stereo not drawn) [RTI-4229-190]	235 nM		0.96 nM	168 nM	
CN1C2CCC1C(C(=O)OC1CC1)C(c1ccc(I)cc1)C2 (stereo not drawn) [RTI-4229-191]	102 nM		0.61 nM	15.5 nM	
Cc1ccc(C2CC3CCC(C2C(=O)OC2CC2)N3C)cc1 (stereo not drawn) [RTI-4229-193]	544 nM		1.68 nM	1070 nM	
Cc1cccc(OC(=O)C2C(c3ccc(Cl)cc3)CC3CCC2N3C)c1 (stereo not drawn) [RTI-4229-203]	2740 nM		9.37 nM	2150 nM	
Cc1ccccc1OC(=O)C1C(c2ccc(Cl)cc2)CC2CCC1N2C (stereo not drawn) [RTI-4229-204]	4780 nM		3.91 nM	3770 nM	
Cc1ccc(C2CC3CCC(C2C(=O)Oc2cccc(C)c2)N3C)cc1 (stereo not drawn) [RTI-4229-205]	2140 nM		8.19 nM	5240 nM	
Cc1ccc(OC(=O)C2C(c3ccc(Cl)cc3)CC3CCC2N3C)cc1 (stereo not drawn) [RTI-4229-206]	1280 nM		27.4 nM	1200 nM	
CN1C2CCC1C(C(=O)N1CCCCOCC1)C(c1ccc(Cl)cc1)C2 (stereo not drawn) [RTI-4229-214]	8550 nM	88800 nM	2.9 nM		
C=C(C)C1C(c2ccc(Cl)cc2)CC2CCC1N2C (stereo not drawn) [RTI-4229-230]	141 nM	57.4 nM	1.26 nM		IC50 [1, 8]: 141 ± 18 nM; IC50 [2, 9]: 57 ± 50 nM; IC50 [3, 10]: 1.28 ± 0.17 nM
Cc1ccc(C2CC3CCC(C2C(C)C)N3C)cc1 (stereo not drawn) [RTI-4229-239]	35.6 nM	114 nM	0.61 nM		IC50 [1, 8]: 35.6 ± 2.57 nM; IC50 [2, 9]: 114 ± 3.69 nM; IC50 [3, 10]: 0.61 ± 0.07 nM
CC(C)C1C(c2ccc(Cl)cc2)CC2CCC1N2C (stereo not drawn) [RTI-4229-240]	84.5 nM	38.4 nM	1.38 nM		IC50 [1, 8]: 84.5 ± 3.09 nM; IC50 [2, 9]: 38.4 ± 2.31 nM; IC50 [3, 10]: 1.38 ± 0.03 nM
COC(=O)CC1C(c2ccc(C)cc2)CC2CCC1N2C (stereo not drawn) [RTI-4229-241]	124 nM	618 nM	1.02 nM		IC50 [1, 8]: 124 ± 3.56 nM; IC50 [2, 9]: 618 ± 28 nM; IC50 [3, 10]: 1.02 ± 0.06 nM
COC(=O)C1CN2C3CCC2C(C1=O)C(c1ccc(Cl)cc1)C3 (stereo not drawn) [RTI-4229-242]		227 nM			IC50 [1, 11]: 510 nM; IC50 ([3]; DA=[3H]WIN 35,428, read-out: DA IC50 for inhibition of radioligand binding): 7.57 nM
O=C1CCN2C3CCC2C1C(c1ccc(Cl)cc1)C3 (stereo not drawn) [RTI-4229-243]		156 nM	129 nM		IC50 [1, 11]: 540 nM
CCOC(=O)CN1C2CCC1C(C(=O)OC)C(c1ccc(Cl)cc1)C2 (stereo not drawn) [RTI-4229-251]	114 nM	10.1 nM	1.93 nM		
COC(=O)CCN1C2CCC1C(C(=O)OC)C(c1ccc(Cl)cc1)C2 (stereo not drawn) [RTI-4229-252]	125 nM	35.2 nM	2.56 nM		
Fc1ccc(C2CC3CCC(N3)C2COc2ccc3c(c2)OCO3)cc1 (stereo not drawn) [RTI-4229-274]	14.4 nM	5.62 nM	3.96 nM		
CN1C2CCC1C(C(=O)Oc1ccccc1)C(c1ccc([N+](=O)[O-])cc1)C2 (stereo not drawn) [RTI-4229-277]	5700 nM	2910 nM	5.94 nM		
COC(=O)C1C2CCC(CC1c1ccc(C)c(I)c1)N2 (stereo not drawn) [RTI-4229-279]	74.3 nM	1.06 nM	5.96 nM		IC50 ([1]; read-out: IC50 NE [3H] Nisoxetine, Table III): 74.3 ± 3.8 nM; IC50 ([2]; IC50 5-HT [3H] Paroxetine, Table III): 1.06 ± 0.39 nM; IC50 ([3]; read-out: IC50 DA [3H] WIN 35,428, Table III): 5.98 ± 0.48 nM
COC(=O)C1C(c2ccc(C)c(I)c2)CC2CCC1N2C (stereo not drawn) [RTI-4229-280]	484 nM	6.81 nM	3.12 nM		
CC#Cc1ccc(C2CC3CCC(C2C(=O)OC)N3C)cc1 (stereo not drawn) [RTI-4229-281]	820 nM		2.37 nM	15.7 nM	
